Patent US20100267952A1, “USE OF NOVEL COMPOUND HAVING AFFINITY FOR AMYLOID, AND PROCESS FOR PRODUCTION OF THE SAME” (NIHON MEDI-PHYSICS CO., LTD., priority 2007, published 2010)

Legend:
[1] = Transferability into brain and clearance (2); assay type: in vivo, male Wistar rats; conditions: rats, intravenous injection, Table 1-10
Description: 0.05 mL each of these solutions was injected under thiopental anesthesia into the tail vein of respective Wistar rats (7-week old). The rats were sacrificed by bleeding from abdominal artery, and brains were removed and subjected to measurement of mass of brains and further subjected to measurement of radioactivity (hereinafter referred to as A in this Example) with a single channel analyzer (detector type: SP-20 manufactured by OHYO KOKEN KOGYO Co., Ltd.) 2, 5, 30 and 60 minutes after the injection. Also, radioactivity (hereinafter referred to as B in this Example) of the rest of the whole body was measured in the same manner as above. Using these measurement results, radioactive distribution per unit weight of brain (% ID/g) at the respective time points were calculated in accordance with the following formula (1-7).
Three animals were used for experiment at the respective time points.

[2] = Radioactive distribution ratio in each organ; assay type: in vivo, SD rat
Description: 0.2 mL each of the prepared sample solution was administered under non-thiopental anesthesia into the tail vein of the above rat. The rats were sacrificed by bleeding from abdominal artery, and each organ shown in Table 3 was removed 5, 30, 60 and 180 minutes after the administration. […] Also, radioactivity of the whole body of the rat after removal of the organs (hereinafter referred to as rest of the whole body) was measured. Using these measurement results, radioactive distribution per unit weight of each organ (% ID/g) at the respective time points was calculated in accordance with the following formula (3).
Three animals were used for the experiment at the respective time points.
R^T: Radioactivity of target organ (cpm) R^S: Sum of radioactivity of all the organs (cpm) R^R: Radioactivity of the rest of the whole body (cpm) M^T: Mass of target organ (g)

[3] = target: T1, amyloid (aggregated Aβ1-42) injected into amygdaloid nucleus (Homo sapiens, UniProt P05067); assay: Confirmation of imaging of amyloid in brain (autoradiogram of brain slice, Aβ1-42 injected rat); assay type: in vivo, male Wistar rat; conditions: tail vein, 11-15 MBq equivalent, brain removed 60 minutes after injection
T1 construct: Aβ1-42 (Wako) was dissolved in phosphate buffer (pH 7.4); purchased Wako
T1 sequence (P05067 672-713): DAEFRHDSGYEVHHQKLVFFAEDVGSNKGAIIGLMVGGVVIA
Description: (1) Aβ1-42 (Wako) was dissolved in phosphate buffer (pH 7.4) and shaken at 37° C. for 72 hours, to obtain a 1 mg/mL suspension of aggregated Aβ (hereinafter referred to as amyloid suspension in this Example).
(2) 2.5 μL (corresponding to 25 μg) of the amyloid suspension was injected into an amygdaloid nucleus on one side of a male Wistar rat (7-week old). As a control, 2.5 μL of a phosphate buffered physiological saline solution (pH 7.4) was injected into an amygdaloid nucleus on the other side of the rat. The rats were examined 1 day after the injection of the amyloid suspension and the phosphate buffered physiological saline solution (pH 7.4).
This solution was injected under thiopental anesthesia into the rat through the tail vein (dosage: 0.5 mL, dosed radioactivity: 11-15 MBq equivalent).
(4) Brain was removed 60 minutes after the injection to prepare a brain slice of 10 μm in thickness with a microtome (type: CM3050S, manufactured by LEICA). The brain slice was exposed to an imaging plate for 20 hours, and then image analysis was carried out by use of a Bio-imaging Analyzer (type: BAS-2500; manufactured by FUJIFILM Corporation).

[4] = SD rat, tail vein, 5 min. after administration
[5] = SD rat, tail vein, 30 min. after administration
[6] = SD rat, tail vein, 60 min. after administration
[7] = SD rat, tail vein, 180 min. after administration

With `FCCOc1ccc(-c2cn3cc([123I])ccc3n2)cc1` [Compound I-9, 2-[4′-(2″-fluoroethoxy)phenyl]-6-[^123I]iodoimidazo[1,2-a]pyridine] the “Radioactive distribution per unit weight in brain, After 2 min.” value ([1]; 2 min.) was 0.72 % ID/g, the “Radioactive distribution per unit weight in brain, After 5 min.” value ([1]; 5 min.) was 0.49 % ID/g and the “Radioactive distribution per unit weight in brain, After 30 min.” value ([1]; 30 min.) was 0.07 % ID/g. For the same molecule, the “Radioactive distribution per unit weight in brain, After 60 min.” value ([1]; 60 min.) was 0.02 % ID/g, the “excretion / clearance to the outside of the body” value ([2]; SD rat, tail vein) was “biliary-excreted rapidly after the administration” and the “Radioactive distribution per unit weight, Adrenal gland, Average” value [2, 4] was 3.914 % ID/g. The “Radioactive distribution per unit weight, Adrenal gland, Average” value [2, 5] was 0.457 % ID/g, the “Radioactive distribution per unit weight, Adrenal gland, Average” value [2, 6] was 0.260 % ID/g and the “Radioactive distribution per unit weight, Adrenal gland, Average” value [2, 7] was 0.017 % ID/g. For the same molecule, the “Radioactive distribution per unit weight, Blood, Average” value [2, 4] was 0.370 % ID/g, the “Radioactive distribution per unit weight, Blood, Average” value [2, 5] was 0.142 % ID/g and the “Radioactive distribution per unit weight, Blood, Average” value [2, 6] was 0.108 % ID/g. For the same molecule, the “Radioactive distribution per unit weight, Blood, Average” value [2, 7] was 0.074 % ID/g, the “Radioactive distribution per unit weight, Bone, Average” value [2, 4] was 0.187 % ID/g and the “Radioactive distribution per unit weight, Bone, Average” value [2, 5] was 0.067 % ID/g. For the same molecule, the “Radioactive distribution per unit weight, Bone, Average” value [2, 6] was 0.045 % ID/g, the “Radioactive distribution per unit weight, Bone, Average” value [2, 7] was 0.032 % ID/g and the “Radioactive distribution per unit weight, Brain, Average” value [2, 4] was 0.701 % ID/g. For the same molecule, the “Radioactive distribution per unit weight, Brain, Average” value [2, 5] was 0.067 % ID/g, the “Radioactive distribution per unit weight, Brain, Average” value [2, 6] was 0.026 % ID/g and the “Radioactive distribution per unit weight, Brain, Average” value [2, 7] was 0.007 % ID/g. The “Radioactive distribution per unit weight, Heart, Average” value [2, 4] was 0.551 % ID/g, the “Radioactive distribution per unit weight, Heart, Average” value [2, 5] was 0.111 % ID/g and the “Radioactive distribution per unit weight, Heart, Average” value [2, 6] was 0.059 % ID/g. The “Radioactive distribution per unit weight, Heart, Average” value [2, 7] was 0.030 % ID/g, the “Radioactive distribution per unit weight, Kidney, Average” value [2, 4] was 1.114 % ID/g and the “Radioactive distribution per unit weight, Kidney, Average” value [2, 5] was 0.560 % ID/g. For the same molecule, the “Radioactive distribution per unit weight, Kidney, Average” value [2, 6] was 0.302 % ID/g, the “Radioactive distribution per unit weight, Kidney, Average” value [2, 7] was 0.108 % ID/g and the “Radioactive distribution per unit weight, Large intestine, Average” value [2, 4] was 0.106 % ID/g. The “Radioactive distribution per unit weight, Large intestine, Average” value [2, 5] was 0.070 % ID/g, the “Radioactive distribution per unit weight, Large intestine, Average” value [2, 6] was 0.074 % ID/g and the “Radioactive distribution per unit weight, Large intestine, Average” value [2, 7] was 5.241 % ID/g. The “Radioactive distribution per unit weight, Liver, Average” value [2, 4] was 2.399 % ID/g, the “Radioactive distribution per unit weight, Liver, Average” value [2, 5] was 0.337 % ID/g and the “Radioactive distribution per unit weight, Liver, Average” value [2, 6] was 0.178 % ID/g. For the same molecule, the “Radioactive distribution per unit weight, Liver, Average” value [2, 7] was 0.067 % ID/g, the “Radioactive distribution per unit weight, Lung, Average” value [2, 4] was 0.647 % ID/g and the “Radioactive distribution per unit weight, Lung, Average” value [2, 5] was 0.192 % ID/g. The “Radioactive distribution per unit weight, Lung, Average” value [2, 6] was 0.130 % ID/g, the “Radioactive distribution per unit weight, Lung, Average” value [2, 7] was 0.074 % ID/g and the “Radioactive distribution per unit weight, Marrow, Average” value [2, 4] was 0.815 % ID/g. For the same molecule, the “Radioactive distribution per unit weight, Marrow, Average” value [2, 5] was 0.075 % ID/g, the “Radioactive distribution per unit weight, Marrow, Average” value [2, 6] was 0.000 % ID/g and the “Radioactive distribution per unit weight, Marrow, Average” value [2, 7] was 0.000 % ID/g. For the same molecule, the “Radioactive distribution per unit weight, Muscle, Average” value [2, 4] was 0.239 % ID/g, the “Radioactive distribution per unit weight, Muscle, Average” value [2, 5] was 0.052 % ID/g and the “Radioactive distribution per unit weight, Muscle, Average” value [2, 6] was 0.031 % ID/g. The “Radioactive distribution per unit weight, Muscle, Average” value [2, 7] was 0.016 % ID/g, the “Radioactive distribution per unit weight, Pancreas, Average” value [2, 4] was 0.650 % ID/g and the “Radioactive distribution per unit weight, Pancreas, Average” value [2, 5] was 0.236 % ID/g. For the same molecule, the “Radioactive distribution per unit weight, Pancreas, Average” value [2, 6] was 0.115 % ID/g, the “Radioactive distribution per unit weight, Pancreas, Average” value [2, 7] was 0.073 % ID/g and the “Radioactive distribution per unit weight, Small intestine, Average” value [2, 4] was 1.259 % ID/g. The “Radioactive distribution per unit weight, Small intestine, Average” value [2, 5] was 6.598 % ID/g, the “Radioactive distribution per unit weight, Small intestine, Average” value [2, 6] was 8.235 % ID/g and the “Radioactive distribution per unit weight, Small intestine, Average” value [2, 7] was 2.657 % ID/g. For the same molecule, the “Radioactive distribution per unit weight, Spleen, Average” value [2, 4] was 0.442 % ID/g, the “Radioactive distribution per unit weight, Spleen, Average” value [2, 5] was 0.092 % ID/g and the “Radioactive distribution per unit weight, Spleen, Average” value [2, 6] was 0.069 % ID/g. For the same molecule, the “Radioactive distribution per unit weight, Spleen, Average” value [2, 7] was 0.037 % ID/g, the “Radioactive distribution per unit weight, Stomach, Average” value [2, 4] was 0.287 % ID/g and the “Radioactive distribution per unit weight, Stomach, Average” value [2, 5] was 0.619 % ID/g. The “Radioactive distribution per unit weight, Stomach, Average” value [2, 6] was 0.672 % ID/g, the “Radioactive distribution per unit weight, Stomach, Average” value [2, 7] was 0.812 % ID/g and the “ratio (% ID/g at 5 minutes after the administration)/(% ID/g at 180 minutes after the administration)” value ([2]; bone) was 6. The “ratio (% ID/g at 5 minutes after the administration)/(% ID/g at 180 minutes after the administration)” value ([2]; brain) was 94, the “ratio (% ID/g at 5 minutes after the administration)/(% ID/g at 180 minutes after the administration)” value ([2]; heart) was 18 and the “ratio (% ID/g at 5 minutes after the administration)/(% ID/g at 180 minutes after the administration)” value ([2]; lung) was 9. For the same molecule, the “ratio (% ID/g at 5 minutes after the administration)/(% ID/g at 180 minutes after the administration)” value ([2]; pancreas) was 9 and the “accumulation of radioactivity in amygdaloid nucleus on the amyloid-injected side (autoradiogram)” value [3] was “marked accumulation of radioactivity”.
